Patent US6214859A, “Ethylamine derivatives” (Fujimoto Brothers Co., Ltd., priority 1997, dated 2001)

Legend:
[1] = system: rats reduced learning ability by tetrabenazine; experiment: Conditioned avoidance task in the shuttle box (tetrabenazine-treated rats); format: in vivo, rat; details: tetrabenazine 1 mg/kg s.c., significance and direction
Procedure: The method described in Life Sci., 58, 817-827 (1996) was used. The effects on conditioned avoidance reflex (CARs) was analyzed in the shuttle box using male and female rats (weighing 200-220 g) whose leaning abilities were reduced by treatment of tetrabenazine. The instrument was constructed, according to the device described in Psychopharmacologia 10, 1-5 (1966) by the Research Institute for Electrical Industry (Budapest, Hungary). The male and female rats (weighing 200-220 g) were trained to cross the berrier under the influence of a conditioned stimulus (CS) (light flash and buzzer sounds). […] And the performance which was not related to this condition was noted as an intersignal reaction (IR). The rats were trained with 100 trials per day for 5 days. One trial consisted of 15 sec intertrial interval. The saline solution of tetrabenazine was administered at a dose of 1 mg/kg subcutaneously before one hour prior to the test and then the solution of the compounds of this invention were administered at the doses of 1, 2, 2.5 and 5 mg/kg subcutaneously with the simultaneous administration of tetrabenazine. The nmbers of CARs, EFs and IRs were automatically counted and evaluated by multi-way analysis of variance (ANOVA).

[2] = system: dopamine release, striatum; experiment: Release of biogenic amines from brain tissue: dopamine, striatum; format: in vivo, Wistar rats
Procedure: (§1) The method described in Life Sci., 56, 611-620 (1995) was used. After Wistar rats were decapitated, appropriate brain samples, which were striatun, substantia nigra, tuberculum olfactorium, locus coeruleus and raphe, were removed quickly and soaked in oxygenated (95% O2 and 5% CO2) Krebs solution at 37° C. The composition of Krebs solution was as follows in […]: NaCl 111, KCl 4.7, CaCl2 2.5, MgSO4 1.64, NaHCO3 25, KH2 PO4 1.2, glucose 11, 50 mg/l ascorbic add and 20 mg/l EDTA-2 Na. The preparations, soaked in one organ bath, were as follows: 1) four pieces of striatum (each halved), 2) four pieces of substantia nigra, 3) four pieces of tuberculum olfactorium; 4) eight pieces of locus coeruleus; 5) eight pieces of raphe. After incubation of the appropriate tissue for 20 min, the Krebs solution was replaced, the tissue soaked for 20 min in Krebs solution dissolving the compounds of this invention and the amount of biogenic amine released during this period of time was estimate. The compounds of this invention and PPAP, control compound, were dissolved in saline and were administered subcutaneously before 30 min to removing brain sample. For measuring noradrenaline and dopamine, samples were purified on 60 mg alumina containing micro columns (BDH Chemicals Ltd.) according to the method described in J. Pharmacol. Exp. Ther., 138, 360-372 (1962) For measuring serotonin, samples were purified on 15 mg Sephadex G-10 micro columns (Pharmacia). Dopamine, noradrenaline and serotonin were determined by high performance liquid chromatography (Waters 746 data module) with electrochemical detection (Waters 460 electrochemical detector). Waters Resolve 5μ Spherical C18 3.9×150 mm column was used as separating column and triethylamine-phosphate buffer (pH 5.2), containing 200 mg/l octane sulfonate sodium and 18 mg/l EDTA-2 Na with 6% acetonitrile, was used as mobile phase. The release amount of appropriate amine was noted as nmol/g tissue released for 20 min. deference of means tested by Student's t-test and significant level was set at P<.05.

[3] = system: dopamine release, substantia nigra; experiment: Release of biogenic amines from brain tissue: dopamine, substantia nigra; format: in vivo, Wistar rats
Procedure: as §1

[4] = system: dopamine release, tuberculum olfactorium; experiment: Release of biogenic amines from brain tissue: dopamine, tuberculum olfactorium; format: in vivo, Wistar rats
Procedure: as §1

[5] = system: noradrenaline release, locus coeruleus; experiment: Release of biogenic amines from brain tissue: noradrenaline, locus coeruleus; format: in vivo, Wistar rats
Procedure: as §1

serotonin release, raphe = experiment: Release of biogenic amines from brain tissue: serotonin, raphe; format: in vivo, Wistar rats
Procedure: as §1

[6] = Toxicity screening using primary cultured hepatocyte (LDH release); format: cell-based, rat; details: rat, primary hepatocytes, 24 hr, control 0.5% saline or 0.5% DMSO, read-out: Percent control of LDH release
Procedure: (§2) The hepatocytes was prepared from rat liver by collagenase perfusion method and suspension containing 5×10^5 cells/ml were prepared. After cultivation for 24 hr, the suspension was exchanged to the William's Medium E (GIBCO BRL) containing 10 or 100 μM of the compounds of this invention. After cultivation for 24 hr, the activity of lactate dehydrogenase (LDH) released in the medium was measured.

[7] = system: primary cultured hepatocyte; experiment: as above; format: cell-based, rat; details: 10 μM
Procedure: as §2

α1 receptor = experiment: Affinity to α1 receptor; parameters: species or system rat; details: read-out: Affinity to α1 receptor (MIC50; mole concentration for 50% inhibition of binding); 0.25 nM ^3H-prazocin; 90 min
Procedure: The solution of receptor was prepared as follows. As soon as rats were decapitated, brain was removed and its weight was measured. Its brain was homogenized in ten times volumes of ice-cold 0.35 M sucrose (pH 7.4) by glass homogenizer with teflon pestle which was revolted by motors. Thereafter, the homogenate was centrifuged at 4° C. at 900×g for 10 min and the supernatant was, furthermore, recentrifuged at 4° C. at 22,000×g for 20 min. The precipitate was suspended by addition of 5 mM phosphate buffer solution (pH 7.4). After the suspension was incubated at 37° C. for 30 min, the suspension was recentrifuged at 4° C. at 22,000×g for 20 min. The precipitate was resuspended by addition of 10 ml of 5 mM phosphate buffer solution (pH 8.0). The precipitate was used as the solution of receptor.
^3 H-prazocin was used as a ligand. 0.25 nM ^3 H-prazocin in 5 mM phosphate buffer (pH 8.0), the compound of this invention and the solution of receptor were added in tube and the mixture were incubated at 25° C. for 90 min. In addition, the […] binding was shown by binding value of ^3 H-prazocin under the coexistence with 0.1 μM prazocin. The binding reaction was carried out as follows. After ^3 H-prazocin (binding type: B) bound to receptor using glassfiberfilter (pore size: 0.5 μm, Whatman GF/C.) and free type of prazocin (free type: F) were separated with B/F separator (Brandel, USA), only the binding type of ^3 H-prazocin was collected. The binding type of ^3 H-prazocin absorbed to glass-fiber filter was washed with ice-cold saline solution and was remove to vial. After 10 ml of scintillation cocktail was added in it, the radioactivity was determined. From the binding inhibition rate of α1 receptor and ligand, affinity of the compounds of this invention to α1 receptor was measured.
If affinity of certain compound to a receptor is high, the binding ligand and receptor is inhibited.

α2 receptor = experiment: Affinity to α2 receptor; parameters: species or system rat; details: read-out: Affinity to α2 receptor (MIC50; mole concentration for 50% inhibition of binding); 0.7 nM ^3H-rauwolscine
D2 receptor = experiment: Affinity to D2 receptor; parameters: species or system rat; details: read-out: Affinity to D2 receptor (MIC50; mole concentration for 50% inhibition of binding); 2.0 nM spiperone
5-HT1 receptor = experiment: Affinity to 5-HT1 receptor; parameters: species or system rat; details: read-out: Affinity to 5-HT1 receptor (MIC50; mole concentration for 50% inhibition of binding); 2 nM ^3H-5-HT
5-HT2 receptor = target: T1, 5-HT2 receptor (Rattus norvegicus, UniProt P14842); experiment: Affinity to 5-HT2 receptor; format: binding
T1 construct: The precipitate was used as the solution of receptor; from tissue; host or cells: rat brain (whole) crude membranes
T1 sequence (P14842 whole entry): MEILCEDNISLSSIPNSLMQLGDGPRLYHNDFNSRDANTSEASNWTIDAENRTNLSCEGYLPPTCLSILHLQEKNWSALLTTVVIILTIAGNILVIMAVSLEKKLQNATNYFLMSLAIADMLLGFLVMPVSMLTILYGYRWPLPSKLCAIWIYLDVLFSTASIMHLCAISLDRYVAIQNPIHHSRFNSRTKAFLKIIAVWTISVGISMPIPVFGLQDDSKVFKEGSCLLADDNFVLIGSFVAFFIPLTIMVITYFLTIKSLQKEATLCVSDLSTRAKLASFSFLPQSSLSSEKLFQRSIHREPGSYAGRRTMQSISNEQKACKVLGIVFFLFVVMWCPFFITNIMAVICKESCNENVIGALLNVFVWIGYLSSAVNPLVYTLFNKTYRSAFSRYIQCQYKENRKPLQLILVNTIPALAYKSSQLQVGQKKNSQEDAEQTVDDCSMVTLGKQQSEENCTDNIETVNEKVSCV

D1 receptor = target: T2, D1 receptor (Rattus norvegicus, UniProt P18901); experiment: Affinity to D1 receptor; format: binding
T2 construct: The precipitate was used as the solution of receptor; from tissue; host or cells: rat brain (whole) crude membranes
T2 sequence (P18901 whole entry): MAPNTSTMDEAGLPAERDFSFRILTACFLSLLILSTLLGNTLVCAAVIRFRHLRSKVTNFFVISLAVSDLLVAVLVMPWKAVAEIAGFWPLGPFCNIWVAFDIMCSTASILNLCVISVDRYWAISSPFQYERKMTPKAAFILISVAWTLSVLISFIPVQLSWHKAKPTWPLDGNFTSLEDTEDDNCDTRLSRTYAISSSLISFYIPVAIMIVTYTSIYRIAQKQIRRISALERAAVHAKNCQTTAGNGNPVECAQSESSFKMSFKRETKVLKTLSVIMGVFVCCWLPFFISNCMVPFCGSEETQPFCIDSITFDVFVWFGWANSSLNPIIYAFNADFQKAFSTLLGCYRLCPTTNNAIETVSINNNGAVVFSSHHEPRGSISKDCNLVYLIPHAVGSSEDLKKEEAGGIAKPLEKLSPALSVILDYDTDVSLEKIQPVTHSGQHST

CCCNC(CCC)Cc1ccccc1 (racemic) [PPAP, 1-phenyl-2-propylaminopentane, reference compound]
Condition Avoidance Reflex (CARs) ([1]; 5 mg/kg s.c.): **** .Arrow-up bold.
Intersignal Reactions (IRs) ([1]; 5 mg/kg s.c.): **** .Arrow-up bold.
Release of dopamine, striatum ([2]; 0.25 mg/kg s.c.): 3.5 ± 0.19 nmol/g tissue, for 20 min
Release of dopamine, striatum ([2]; 1.00 mg/kg s.c.): 3.6 ± 0.19 nmol/g tissue, for 20 min
Release of dopamine, substantia nigra ([3]; 0.25 mg/kg s.c.): 4.0 ± 0.24 nmol/g tissue, for 20 min
Release of dopamine, substantia nigra ([3]; 1.00 mg/kg s.c.): 4.0 ± 0.21 nmol/g tissue, for 20 min
Release of dopamine, tuberculum olfactorium ([4]; 0.25 mg/kg s.c.): 3.7 ± 0.10 nmol/g tissue, for 20 min
Release of dopamine, tuberculum olfactorium ([4]; 1.00 mg/kg s.c.): 3.2 ± 0.21 nmol/g tissue, for 20 min
Release of noradrenaline, locus coeruleus ([5]; 0.25 mg/kg s.c.): 3.8 ± 0.30 nmol/g tissue, for 20 min
Release of noradrenaline, locus coeruleus ([5]; 1.00 mg/kg s.c.): 4.6 ± 0.15 nmol/g tissue, for 20 min
Release of serotonin, raphe (serotonin release, raphe; 0.25 mg/kg s.c.): 0.416 ± 0.03 nmol/g tissue, for 20 min
Release of serotonin, raphe (serotonin release, raphe; 1.00 mg/kg s.c.): 0.741 ± 0.01 nmol/g tissue, for 20 min
activity at 24 h, 10 µM [6]: 127 ± 5.45%
activity at 24 h, 100 µM [6]: 152 ± 11.1%
LDH release, significance in words [7]: released LDH significantly

C#CCN(C)[C@H](C)Cc1ccccc1 [Selegiline, reference compound]
IC50 (α1 receptor): > 10 µM
IC50 (α2 receptor): 2 µM
IC50 (D2 receptor): > 10 µM
IC50 (5-HT1 receptor): > 10 µM
IC50 (5-HT2 receptor): > 10 µM

CC(C)C[C@H]1C(=O)N2CCC[C@H]2[C@]2(O)O[C@](NC(=O)[C@@H]3C=C4c5cccc6[nH]c(Br)c(c56)C[C@H]4N(C)C3)(C(C)C)C(=O)N12 [Bromocriptine, reference compound]
IC50 (α1 receptor): 0.01 µM
IC50 (α2 receptor): 0.1 µM
IC50 (D1 receptor): 10 µM
IC50 (D2 receptor): 0.01 µM
IC50 (5-HT1 receptor): 0.1 µM
IC50 (5-HT2 receptor): 1 µM

CCCNC(CCC)Cc1cccc2[nH]ccc12.Cl (stereo not shown) [Compound No. 21, 1-(Indol-4-yl)-2-propylaminopentane Hydrochloride]
Condition Avoidance Reflex (CARs) ([1]; 0.5 mg/kg s.c.): ** .Arrow-up bold.
Condition Avoidance Reflex (CARs) ([1]; 1 mg/kg s.c.): **** .Arrow-up bold.
Release of dopamine, striatum ([2]; 0.01 mg/kg s.c.): 5.4 ± 0.17 nmol/g tissue, for 20 min
Release of dopamine, substantia nigra ([3]; 0.01 mg/kg s.c.): 10.0 ± 0.30 nmol/g tissue, for 20 min
Release of dopamine, tuberculum olfactorium ([4]; 0.01 mg/kg s.c.): 7.4 ± 0.15 nmol/g tissue, for 20 min
Release of noradrenaline, locus coeruleus ([5]; 0.01 mg/kg s.c.): 4.6 ± 0.40 nmol/g tissue, for 20 min
Release of serotonin, raphe (serotonin release, raphe; 0.01 mg/kg s.c.): 0.354 ± 0.00 nmol/g tissue, for 20 min
IC50 (α1 receptor): > 10 µM
IC50 (α2 receptor): 0.7 µM
IC50 (D1 receptor): > 10 µM
IC50 (D2 receptor): > 10 µM
IC50 (5-HT1 receptor): > 10 µM
IC50 (5-HT2 receptor): > 10 µM
activity at 24 h, 10 µM [6]: 110 ± 4.42%
activity at 24 h, 100 µM [6]: 130 ± 9.68%

CCCNC(CCC)Cc1cc2ccccc2o1.Cl (stereo not shown) [Compound No. 25, 1-(Benzofuran-2-yl)-2-propylaminopentane Hydrochloride]
Condition Avoidance Reflex (CARs) ([1]; 1 mg/kg s.c.): **** .Arrow-up bold.
Escape Failures (EFs) ([1]; 1 mg/kg s.c.): * .dwnarw.
Condition Avoidance Reflex (CARs) ([1]; 5 mg/kg s.c.): **** .Arrow-up bold.
Intersignal Reactions (IRs) ([1]; 5 mg/kg s.c.): * .Arrow-up bold.
Release of dopamine, striatum ([2]; 0.01 mg/kg s.c.): 5.3 ± 0.14 nmol/g tissue, for 20 min
Release of dopamine, substantia nigra ([3]; 0.01 mg/kg s.c.): 6.6 ± 0.04 nmol/g tissue, for 20 min
Release of dopamine, tuberculum olfactorium ([4]; 0.01 mg/kg s.c.): 6.5 ± 0.20 nmol/g tissue, for 20 min
Release of noradrenaline, locus coeruleus ([5]; 0.01 mg/kg s.c.): 4.3 ± 0.20 nmol/g tissue, for 20 min
Release of serotonin, raphe (serotonin release, raphe; 0.01 mg/kg s.c.): 0.457 ± 0.04 nmol/g tissue, for 20 min
IC50 (α1 receptor): > 10 µM
IC50 (α2 receptor): 1 µM
IC50 (D1 receptor): > 10 µM
IC50 (D2 receptor): > 10 µM
IC50 (5-HT1 receptor): > 10 µM
IC50 (5-HT2 receptor): 20 µM
activity at 24 h, 10 µM [6]: 90.3 ± 2.85%
activity at 24 h, 100 µM [6]: 112 ± 37%
